{
  "source": "patent US4004023A",
  "about": "“1-(4-Butylphenyl)-1-(3,4-methylenedioxyphenyl)-2-nitroalkanes and synergistic insecticidal mixtures therewith” (Mobil Oil Corporation, priority 1975, dated 1977)",
  "format_in_all_cases": "in vivo",
  "key": {"Southern armyworm": {"tested_on": "Southern armyworm", "test": "whole plant or invertebrate", "conditions": "Spodoptera eridania, in Phaseolus lunatus, third or fourth instar larvae, 48 to 72 hour, read-out: percent kill, Southern armyworm (SA)", "experimental": "(§1) The new 1-(4-butylphenyl)-1-(3,4-methylenedioxyphenyl)-2-nitroalkanes of this invention (Examples 4-6) were evaluated in standard greenhouse insecticide tests using housefly (HF), Mexican bean beetle (MB), Southern armyworm (SA) and yellow fever mosquito (YF). The rates of application were 500 and 100 ppm of active ingredient except in the mosquito test where test rates were 10 and 1 ppm. The results as set forth in Table I below indicate the percent kill of each insect species.\n(§2) Southern armyworm and Mexican bean beetle; lima bean leaves of uniform size were momentarily dipped in a water-acetone solution of the test compound and the treated leaves were then placed on moistened filter paper in 9 cm. petri dishes and allowed to air dry. When dry, five, third or fourth instar larvae were introduced and encouraged to feed on the treated foliage by means of confinement. The dishes were closed and held for observation of mortality and feeding during a 48 to 72 hour period."}, "Mexican bean beetle": {"tested_on": "Mexican bean beetle", "test": "whole plant or invertebrate", "conditions": "Epilachna varivestis, third or fourth instar larvae, 48 to 72 hour, read-out: percent kill, Mexican bean beetle (MB)", "experimental": "as §1, §2"}, "housefly [1]": {"tested_on": "housefly", "test": "whole plant or invertebrate", "conditions": "Musca domestica, adult houseflies, mortality at 24 hours, read-out: percent kill, housefly (HF)", "experimental": "as §1\n(§3) Housefly; 1 milliliter of an aqueous solution or suspension of the test compound was pipeted into a 9 cm. petri dish containing filter paper and 0.1 gram of granular sugar. Ten adult houseflies were admitted and the dish closed. Observations were made periodically for knockdown and at 24 hours for mortality."}, "yellow fever mosquito": {"tested_on": "yellow fever mosquito", "test": "whole plant or invertebrate", "conditions": "Aedes aegypti, fourth stage larvae, 24 hour exposure, read-out: percent kill, yellow fever mosquito (YF); for mortality at 1 ppm: 1 ppm (line printed as 100 ppm; footnote: 10 and 1 ppm for YF); for mortality at 10 ppm: 10 ppm (line printed as 500 ppm; footnote: 10 and 1 ppm for YF)", "experimental": "as §1\nYellow fever mosquito; fourth stage larvae were exposed to a solution of the active compound in water. The active material was initially dissolved in acetone and then added to the water. The compounds were screened at 10 ppm and at 1 ppm using approximately 10 larvae per 100 ml of treated water. Each treatment was replicated twice. Mortality was determined after 24 hour exposure."}, "housefly [2]": {"tested_on": "housefly", "test": "insecticide synergist test of mixtures on housefly", "conditions": "25 ppm (0.0025 wt. %) total of both active ingredients; numbers in parentheses are % in mixture; 1440 min", "experimental": "as §3\nThe new 1-(4-butylphenyl)-1-(3,4-methylenedioxyphenyl)-2-nitroalkanes of this invention were evaluated as insecticide synergists in standard insecticide tests. In general the compounds of this invention were combined with the insecticide -- 1-(p-tert-butylphenyl)-1-(p-ethoxyphenyl)-2-nitrobutane (pending application Serial No. 410,935, filed October 29, 1973) designated as Example 8 above -- in varying proportions starting from, for example, 90% Example 4, 5 or 6 plus 10% Example 8 and decreasing to, for example 10% Example 4, 5 or 6, plus 90% Example 8. In all cases, the total sum of active ingredients (i.e. Examples 4, 5 or 6 plus 8) equaled 25 ppm. These mixtures were tested on housefly following the standard greenhouse test procedure, outlined above. The results as set forth below indicate the percent kill (or percent control) of the insect species: […]"}},
  "data": [
    {"smiles": "CCC(C(c1ccc(C(C)(C)C)cc1)c1ccc2c(c1)OCO2)[N+](=O)[O-]", "note": "(centres unmarked) [Example 4, 1-(4-tert-Butylphenyl)-1-(3,4-methylenedioxyphenyl)-2-nitrobutane]", "values": [
      {"measurement": "mortality at 100 ppm", "setting": "Southern armyworm", "value": 100, "unit": "%"},
      {"measurement": "mortality at 500 ppm", "setting": "Southern armyworm", "value": 100, "unit": "%"},
      {"measurement": "mortality at 100 ppm", "setting": "Mexican bean beetle", "value": 100, "unit": "%"},
      {"measurement": "mortality at 500 ppm", "setting": "Mexican bean beetle", "value": 100, "unit": "%"},
      {"measurement": "mortality at 100 ppm", "setting": "housefly [1]", "value": 20, "unit": "%"},
      {"measurement": "mortality at 500 ppm", "setting": "housefly [1]", "value": 100, "unit": "%"},
      {"measurement": "mortality at 1 ppm", "setting": "yellow fever mosquito", "value": 40, "unit": "%"},
      {"measurement": "mortality at 10 ppm", "setting": "yellow fever mosquito", "value": 100, "unit": "%"}
    ]},
    {"smiles": "CC(C(c1ccc(C(C)(C)C)cc1)c1ccc2c(c1)OCO2)[N+](=O)[O-]", "note": "(centres unmarked) [Example 5, 1-(4-tert-Butylphenyl)-1-(3,4-methylenedioxyphenyl)-2-nitropropane]", "values": [
      {"measurement": "mortality at 100 ppm", "setting": "Southern armyworm", "value": 80, "unit": "%"},
      {"measurement": "mortality at 500 ppm", "setting": "Southern armyworm", "value": 100, "unit": "%"},
      {"measurement": "mortality at 100 ppm", "setting": "Mexican bean beetle", "value": 100, "unit": "%"},
      {"measurement": "mortality at 500 ppm", "setting": "Mexican bean beetle", "value": 100, "unit": "%"},
      {"measurement": "mortality at 100 ppm", "setting": "housefly [1]", "value": 10, "unit": "%"},
      {"measurement": "mortality at 500 ppm", "setting": "housefly [1]", "value": 100, "unit": "%"},
      {"measurement": "mortality at 1 ppm", "setting": "yellow fever mosquito", "value": 100, "unit": "%"},
      {"measurement": "mortality at 10 ppm", "setting": "yellow fever mosquito", "value": 100, "unit": "%"}
    ]},
    {"smiles": "CCC(C)c1ccc(C(c2ccc3c(c2)OCO3)C(CC)[N+](=O)[O-])cc1", "note": "(centres unmarked) [Example 6, 1-(4-sec-Butylphenyl)-1-(3,4-methylenedioxyphenyl)-2-nitrobutane]", "values": [
      {"measurement": "% CONTROL (percent kill or percent control), housefly", "setting": "housefly [2]", "value": 0, "unit": "%"},
      {"measurement": "mortality at 100 ppm", "setting": "Southern armyworm", "value": 30, "unit": "%"},
      {"measurement": "mortality at 500 ppm", "setting": "Southern armyworm", "value": 100, "unit": "%"},
      {"measurement": "mortality at 100 ppm", "setting": "Mexican bean beetle", "value": 90, "unit": "%"},
      {"measurement": "mortality at 500 ppm", "setting": "Mexican bean beetle", "value": 100, "unit": "%"},
      {"measurement": "mortality at 100 ppm", "setting": "housefly [1]", "value": 100, "unit": "%"},
      {"measurement": "mortality at 500 ppm", "setting": "housefly [1]", "value": 100, "unit": "%"},
      {"measurement": "mortality at 1 ppm", "setting": "yellow fever mosquito", "value": 100, "unit": "%"},
      {"measurement": "mortality at 10 ppm", "setting": "yellow fever mosquito", "value": 100, "unit": "%"}
    ]},
    {"smiles": "CCOc1ccc(C(c2ccc(C(C)(C)C)cc2)C(CC)[N+](=O)[O-])cc1", "note": "(centres unmarked) [Example 8, 1-(p-tert-Butylphenyl)-1-(p-ethoxyphenyl)-2-nitrobutane]", "values": [
      {"measurement": "% CONTROL (percent kill or percent control), housefly", "setting": "housefly [2]", "value": 40, "unit": "%"}
    ]}
  ]
}
